Results: patent US6965051B2, “Process for resolution of tamsulosin and compounds, compositions, and processes associated therewith” (Synthon IP Inc., priority 2001, dated 2005)

Legend:
[1] = Solubility of solid state racemic tamsulosin free base precipitates (qualitative); type: physicochemical; settings: relatively pure precipitate
Text: The typical starting tamsulosin substrate, namely racemic tamsulosin free base in solid state, is not formed in the prior art per se. The present invention is based in part on the discovery that the racemic free base can be formed and isolated in the solid state. Preferably the solid state form is a precipitate from a solution. More preferably, the solid state form is a crystalline form. The crystalline form includes all polymorphic modifications, unless otherwise noted and includes hydrates and solvates thereof. In particular, two polymorphic forms of solid state racemic tamsulosin free base, designated as Form 1 and Form 2, have now been discovered as part of the present invention and are described hereinafter. The solid state racemic free base can be isolated in high purity, including at least 80% purity, more preferably at least 90% purity, still more preferably at least 95% purity.

[2] = Water solubility of amine (5) observed during alkaline extraction; type: physicochemical; settings: free base, normal alkaline extraction gave too high a loss
Text: It has now been discovered that the so obtained free base of (5) is contaminated by side-products and should be purified for the next step. […] It has been discovered that an effective way to purify the amine is to form a sulfonic acid salt of the amine, especially methane sulfonate or tosylate. The salt, particularly the methane sulfonate salt of (5), may be isolated in solid, preferably crystalline state by conventional methods and may be used as an advantageous substrate in the next reaction step. The conversion of the free base of (5) into an acid addition salt and isolation of the salt in solid state enhances the purity of the compound (5), particularly it removes side products that resulted from hydrogenation such as 2-ethoxyphenyl. The 2-(o-ethoxyphenoxy)ethylamine methane sulfonate thus forms a specific aspect of this invention.

| solubility in alcohols ([1]; alcohols such as methanol and ethanol) | solubility in chlorinated hydrocarbons ([1]; chlorinated hydrocarbons) | solubility in water ([1]; water) | water solubility [2] | SMILES |
| --- | --- | --- | --- | --- |
| soluble | soluble | sparingly soluble |  | CCOc1ccccc1OCCNC(C)Cc1ccc(OC)c(S(N)(=O)=O)c1 (racemic) [racemic tamsulosin free base, (R,S)-5-[2-[[2-(2-ethoxyphenoxy)ethyl]amino]propyl]-2-methoxybenzene-sulfonamide] |
|  |  |  | unexpectedly high | CCOc1ccccc1OCCN [amine (5), 2-(o-ethoxyphenoxy)ethylamine] |
